# Measured values from patent publication US9199965B2, “Benzoimidazole derivatives and pharmaceutical composition comprising the same” (Daewoong Co., Ltd., priority 2005, dated 2015).
# Molecular target: T1, human vanilloid-1 (hVR1) (Homo sapiens, UniProt Q8NER1)
# T1 construct: expressed in transfected cells; host or cells: HEK293 Tet-on (hVR1-HEK293), doxycycline-induced
# Assay: Calcium influx of vanilloid receptor in hVR1-HEK293 cells (capsaicin-induced, Fluo-3/AM)
# Format: cell-based
# Conditions: 1 μM capsaicin-induced intracellular calcium influx, read-out: Inhibitory Activity IC50
# Protocol: Experiments for calcium influx were performed to measure the activity of the compounds as antagonists.
# The cell strain hVR1-HEK293 is the human embryonic kidney (HEK) 293 Tet-on cell transfected with a human vanilloid-1 gene (pTRE2hyg-hVR1, 7.8 kb), which is capable of controlling the expression of VR1 according to the administration of deoxycycline, a tetracycline derivative analog. In a medium supplemented with deoxycycline two days before calcium influx experiments, the cell strain was cultured to induce the expression of VR1. After being grown to a confluency of about 80% in T75 flasks, hVR1-HEK293 was detached from the flask using trypsin. Cells harvested by centrifugation were suspended in a medium supplemented with 1 μg/mL of deoxycycline and diluted to a density of 2-4×10^5 cells/mL, after which a 100 μL aliquot of the cell suspension was added to each well of 96 well black plates. Before the measurement of calcium influx, the cells were incubated for two days at 37° C. in a 5% CO2 incubator.
# For use in calcium influx experiments, each compound was dissolved in dimethyl sulfoxide (DMSO).
# To measure an intracellular calcium influx, cells were incubated at 37° C. for 90 min in a medium containing the calcium indicator Fluo-3/AM so as to allow the fluorescent dye to penetrate into the cells. Then, the cells were washed three times with D-PBS (Dulbecco's phosphate buffered saline) containing 10 mM HEPES to remove the fluorescent dye which remained outside. 193 μL aliquot of D-PBS was added to each well, followed by the addition of various concentrations of compounds thereto. In order to measure the antagonistic activity of the compounds, calcium influx was induced by treatment with 1 μM capsaicin. The inhibitory effect of each compound on 1 μM capsaicin-induced intracellular calcium influx according to compound concentration was measured using a fluorescent analyzer and the data thus obtained were analyzed on the basis of the Hill's equation.
# T1 sequence (Q8NER1 whole entry): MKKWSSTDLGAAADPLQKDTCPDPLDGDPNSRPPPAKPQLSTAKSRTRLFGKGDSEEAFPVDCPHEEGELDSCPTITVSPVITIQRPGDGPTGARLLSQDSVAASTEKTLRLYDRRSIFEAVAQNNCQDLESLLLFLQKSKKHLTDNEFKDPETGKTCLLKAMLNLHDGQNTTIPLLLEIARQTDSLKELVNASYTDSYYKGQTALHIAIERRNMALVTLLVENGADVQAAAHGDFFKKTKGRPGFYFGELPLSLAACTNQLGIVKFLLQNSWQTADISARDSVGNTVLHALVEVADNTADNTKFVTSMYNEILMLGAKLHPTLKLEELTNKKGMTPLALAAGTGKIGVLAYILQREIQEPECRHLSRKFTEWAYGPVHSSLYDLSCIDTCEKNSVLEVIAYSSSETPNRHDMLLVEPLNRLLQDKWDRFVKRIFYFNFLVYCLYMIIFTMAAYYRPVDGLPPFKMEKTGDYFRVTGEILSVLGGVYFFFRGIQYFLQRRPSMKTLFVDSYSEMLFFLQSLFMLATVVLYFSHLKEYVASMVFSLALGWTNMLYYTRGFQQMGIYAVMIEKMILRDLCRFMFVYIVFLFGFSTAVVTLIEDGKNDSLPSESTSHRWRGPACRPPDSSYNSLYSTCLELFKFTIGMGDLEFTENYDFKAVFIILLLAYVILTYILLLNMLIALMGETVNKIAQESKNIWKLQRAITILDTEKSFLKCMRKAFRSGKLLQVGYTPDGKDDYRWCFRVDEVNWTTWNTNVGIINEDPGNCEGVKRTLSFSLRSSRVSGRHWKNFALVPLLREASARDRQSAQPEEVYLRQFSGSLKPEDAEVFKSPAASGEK
row,IC50 [µM],SMILES
1,0.289,"Clc1cccnc1-c1ccc(-c2nc3ccc(Br)cc3[nH]2)cc1 [Compound 13, 6-bromo-2-(4-(3-chloropyridin-2-yl)phenyl)-1H-benzoimidazole]"
2,0.168,"FC(F)(F)c1cc(Br)c2nc(-c3ccc(-c4ncccc4Cl)cc3)[nH]c2c1 [Compound 14, 4-bromo-2-(4-(3-chloropyridin-2-yl)phenyl)-6-(trifluoromethyl)-1H-benzoimidazole]"
3,0.039,"FC(F)(F)c1cccnc1-c1ccc(-c2nc3cc(Cl)c(Cl)cc3[nH]2)cc1 [Compound 35, 5,6-dichloro-2-[4-(3-trifluoromethylpyridin-2-yl)phenyl]-1H-benzoimidazole]"
4,0.454,"Fc1ccc2nc(-c3ccc(-c4ncccc4C(F)(F)F)cc3)[nH]c2c1 [Compound 38, 6-fluoro-2-(4-(3-(trifluoromethyl)pyridin-2-yl)phenyl)-1H-benzoimidazole]"
5,0.019,FC(F)(F)c1cccnc1-c1ccc(-c2nc3ncc(Br)cc3[nH]2)cc1 [Compound 39]
6,0.082,"CC(C)(C)c1ccc2nc(-c3ccc(-c4ccccn4)cc3)[nH]c2c1 [Compound 47, 6-tert-butyl-2-(4-pyridin-2-ylphenyl)-1H-benzoimidazole]"
7,0.16,"FC(F)(F)c1ccc2nc(-c3ccc(-c4ccccn4)cc3)[nH]c2c1 [Compound 48, 6-(trifluoromethyl)-2-(4-(pyridin-2-yl)phenyl)-1H-benzoimidazole]"
8,0.284,"FC(F)(F)c1cc(Cl)c2nc(-c3ccc(-c4ccccn4)cc3)[nH]c2c1 [Compound 49, 4-chloro-6-(trifluoromethyl)-2-(4-(pyridin-2-yl)phenyl)-1H-benzoimidazole]"
9,0.292,"Clc1cc2nc(-c3ccc(-c4ccccn4)cc3)[nH]c2cc1Cl [Compound 50, 5,6-dichloro-2-(4-(pyridin-2-yl)phenyl)-1H-benzoimidazole]"
10,0.246,"FC(F)(F)c1cc(C(F)(F)F)c2nc(-c3ccc(-c4ccccn4)cc3)[nH]c2c1 [Compound 51, 4,6-bis(trifluoromethyl)-2-(4-(pyridin-2-yl)phenyl)-1H-benzoimidazole]"
11,1.4,"Fc1ccc2nc(-c3ccc(-c4ccccn4)cc3)[nH]c2c1 [Compound 52, 6-fluoro-2-(4-(pyridin-2-yl)phenyl)-1H-benzoimidazole]"
12,0.145,"Brc1cnc2nc(-c3ccc(-c4ccccn4)cc3)[nH]c2c1 [Compound 53, 6-bromo-2-(4-(pyridin-2-yl)phenyl)-1H-imidazo[4,5-b]pyridine]"
13,0.022,"FC(F)(F)c1cc(Br)c2nc(-c3ccc(-c4nccc(C(F)(F)F)n4)cc3)[nH]c2c1 [Compound 56, 4-bromo-6-(trifluoromethyl)-2-(4-(4-(trifluoromethyl)pyrimidin-2-yl)phenyl)-1H-benzoimidazole]"
14,0.145,"CC(C)(C)c1ccc2nc(-c3ccc(-c4ncccn4)cc3)[nH]c2c1 [Compound 58, 6-tert-butyl-2-(4-(pyrimidin-2-yl)phenyl)-1H-benzoimidazole]"
15,0.296,"N#Cc1cccnc1-c1ccc(-c2nc3ccc(C(F)(F)F)cc3[nH]2)cc1 [Compound 59, 2-(4-(6-(trifluoromethyl)-1H-benzoimidazole-2-yl)phenyl)pyridin-3-carbonitrile]"
16,0.15,CC(C)(C)c1ccc2nc(-c3ccc(-c4ncccc4C#N)cc3)[nH]c2c1 [Compound 60]
17,0.263,"CC(C)(C)c1ccc2nc(-c3ccc(-c4ccccn4)cc3F)[nH]c2c1 [Compound 82, 6-tert-butyl-2-(2-fluoro-4-pyridin-2-yl)phenyl-1H-benzoimidazole]"

row,IC50 [µM],SMILES
1,0.644,"FC(F)(F)c1ccc2nc(-c3ccc(-c4ncccc4C(F)(F)F)cc3Cl)[nH]c2c1 [Compound 97, 2-[2-chloro-4-(3-trifluoromethylpyridin-2-yl)phenyl]-6-trifluoromethyl-1H-benzoimidazole]"
2,0.275,"FC(F)(F)c1cc(C(F)(F)F)c2nc(-c3ccc(-c4ncccc4Cl)c4ccccc34)[nH]c2c1 [Compound 106, 2-[4-(3-chloropyridin-2-yl)naphthalen-1-yl]-4,6-bistrifluoromethyl-1H-benzoimidazole]"
3,0.363,"FC(F)(F)c1ccc2nc(-c3ccc(-c4ncccc4C(F)(F)F)c4ccccc34)[nH]c2c1 [Compound 113, 6-trifluoromethyl-2-[4-(3-trifluoromethylpyridin-2-yl)naphthalen-1-yl]-1H-benzoimidazole]"
4,3.96,"Clc1cc2nc(-c3ccc(-c4ccccn4)c(Cl)c3)[nH]c2cc1Cl [Compound 129, 5,6-dichloro-2-(3-chloro-4-(pyridin-2-yl)phenyl)-1H-benzoimidazole]"
5,0.436,"Clc1cc(-c2nc3ccc(Br)cc3[nH]2)ccc1-c1ccccn1 [Compound 130, 6-bromo-2-(3-chloro-4-(pyridin-2-yl)phenyl)-1H-benzoimidazole]"
6,0.952,"FC(F)(F)c1ccc2nc(-c3ccc(-c4ncccc4Cl)cn3)[nH]c2c1 [Compound 136, 3-chloro-6′-(6-trifluoromethyl-1H-benzoimidazole-2-yl)-[2,3′]bipyridine]"
7,0.569,"Clc1ccc2nc(-c3ccc(-c4ncccc4Cl)cn3)[nH]c2c1 [Compound 137, 3-chloro-6′-(6-chloro-1H-benzoimidazole-2-yl)-[2,3′]bipyridine]"
8,0.066,"FC(F)(F)c1cc(Br)c2nc(-c3ccc(-c4ncccc4Cl)cn3)[nH]c2c1 [Compound 140, 4-bromo-2-(5-(3-chloropyridin-2-yl)pyridin-2-yl)-6-(trifluoromethyl)-1H-benzoimidazole]"
9,2.4,"Clc1cccnc1-c1ccc(-c2nc3ccc(Br)cc3[nH]2)nc1 [Compound 141, 6-bromo-2-(5-(3-chloropyridin-2-yl)pyridin-2-yl)-1H-benzoimidazole]"
10,3.95,"CC(C)(C)c1ccc2nc(-c3ccc(-c4ncccc4C(F)(F)F)cn3)[nH]c2c1 [Compound 159, 6′-(6-tert-butyl-1H-benzoimidazole-2-yl)-3-trifluoromethyl-[2,3′]bipyridine]"
11,0.258,"FC(F)(F)c1cccnc1-c1ccc(-c2nc3ccc(Cl)cc3[nH]2)nc1 [Compound 160, 6′-(6-chloro-1H-benzoimidazole-2-yl)-3-trifluoromethyl-[2,3′]bipyridine]"
12,3.9,"Fc1ccc2nc(-c3ccc(-c4ncccc4C(F)(F)F)cn3)[nH]c2c1 [Compound 166, 6-fluoro-2-(5-(3-(trifluoromethyl)pyridin-2-yl)pyridin-2-yl)-1H-benzoimidazole]"
13,0.046,"Clc1cc2nc(-c3ccc(-c4ccccn4)cn3)[nH]c2cc1Cl [Compound 173, 5,6-dichloro-2-(5-(pyridin-2-yl)pyridin-2-yl)-1H-benzoimidazole]"
14,0.282,"CC(C)(C)c1ccc2nc(-c3ccc(-c4cccc5ccccc45)nc3)[nH]c2c1 [Compound 174, 6-tert-butyl-2-(6-naphthalen-1-ylpyridin-3-yl)-1H-benzoimidazole]"
15,0.229,"FC(F)(F)c1ccc2nc(-c3ccc(-c4cccc5ccccc45)nc3)[nH]c2c1 [Compound 176, 6-(trifluoromethyl)-2-(6-(naphthalen-1-yl)pyridin-3-yl)-1H-benzoimidazole]"
16,0.151,"Clc1ccc2nc(-c3ccc(-c4cccc5ccccc45)nc3)[nH]c2c1 [Compound 177, 6-chloro-2-(6-(naphthalen-1-yl)pyridin-3-yl)-1H-benzoimidazole]"
